The source of these data is patent US4578468A, “Antibiotic LL-D42067β” (American Cyanamid Company, priority 1984, dated 1986).

In one assay the test system is gram-positive bacteria. In words: in vitro antimicrobial spectrum, summary. In kind it is cell-based. The settings on record: summary of Table VI. As for the experimental part:
(§1) The in vitro antimicrobial spectrum of LL-D42067β was determined by the agar plate dilution method with Mueller-Hinton agar and an inoculum of each test organism of approximately 10^4 colony forming units delivered by the Steers replicating device. The minimal inhibitory concentration (MIC) in mcg/ml was defined as the lowest concentration of LL-D42067β that inhibited visible growth after 18 hours incubation at 35° C.

The next assay deals with yeasts. Nature of the assay: in vitro antimicrobial spectrum, summary. The settings on record: summary of Table VI. In kind it is cell-based. As for the experimental part: as §1
Assay [1] concerns Acinetobacter calcoaceticus. In words: in vitro antimicrobial spectrum, agar plate dilution (MIC). In kind it is cell-based. The settings on record: strain STFD 79-17, 18 hours, 35° C., Mueller-Hinton agar. On the procedure: as §1
In the next assay the test system is Candida albicans. The assay is described as above. In kind it is cell-based. The settings on record: strain CA 300, 18 hours, 35° C., Mueller-Hinton agar. On the procedure: as §1
Assay [2] concerns Staphylococcus epidermidis. The description is as above. The assay is classed as cell-based. The settings on record: ATCC12228, strain ATCC 12228, 18 hours, 35° C., Mueller-Hinton agar. On the procedure: as §1
The next assay concerns Escherichia coli. The description is as above. In kind it is cell-based. The note with it: 35° C., Mueller-Hinton agar. As for the experimental part:
as §1

A further assay deals with Staphylococcus aureus. The description is as above. In kind it is cell-based. The note with it: Mueller-Hinton agar. On the procedure:
as §1

A further assay deals with Mycobacterium smegmatis. Described as above. The settings on record: Mycolicibacterium smegmatis, ATCC607; strain ATCC 607; 18 hours, 35° C., Mueller-Hinton agar. The assay is classed as cell-based. On the procedure:
as §1

For another assay, the system named is Streptococcus mutans. Described as above. The note with it: 35° C., Mueller-Hinton agar. In kind it is cell-based. On the procedure: as §1
Another assay relates to Saccharomyces cerevisiae. The description is as above. The assay is classed as cell-based. The note with it: strain Y 15, 18 hours, 35° C., Mueller-Hinton agar. As for the experimental part: as §1
The conditions of assay [3]: poultry; subject of a copending application; cited from earlier work.

Values after ≈ are worked out from the molar mass of the structure shown.

Take `COc1c2c(c(O)c3c(=O)c4c(oc13)[C@@H](O)CC[C@@H]4O)-c1c3c(c4cc(C)[nH]c(=O)c4c1O)OCO[C@H]3C2` (relative stereo) [LL-D42067β]: in the assay on gram-positive bacteria, the “antibacterial activity (in words)” value is on record as “active”. For the same compound, the “activity against yeasts (in words)” value with yeasts was “moderately active”. Further, the MIC was 512 µg/mL (≈ 982 µM) in assay [1]; 512 µg/mL (≈ 982 µM) in the assay on Candida albicans; 0.25 µg/mL (≈ 0.479 µM) in [2]; 512 µg/mL (≈ 982 µM) in the assay with Escherichia coli (ATCC25922, strain ATCC 25922, 18 hours); 512 µg/mL (≈ 982 µM) in the assay with Escherichia coli (strain No. 311, 18 hours); 0.12 µg/mL (≈ 0.23 µM) in the assay with Staphylococcus aureus (18 h, strain LL No. 45, 35° C.). Besides, the minimum inhibitory concentration (MIC) against Staphylococcus aureus (ATCC25923, 18 h, strain ATCC 25923, 35° C.) came out at 0.25 µg/mL (≈ 0.479 µM); against Mycobacterium smegmatis, 512 µg/mL (≈ 982 µM); in the assay with Streptococcus mutans (ATCC27352, strain ATCC 27352-1, 18 hours), 0.25 µg/mL (≈ 0.479 µM); in the assay with Streptococcus mutans (strain BHI (b), 18 hours), 0.25 µg/mL (≈ 0.479 µM); in the assay on Saccharomyces cerevisiae, 512 µg/mL (≈ 982 µM). For the same compound, the “anticoccidial effect (in words)” value in assay [3] is recorded as “effective”.
